For experiment [1], the target named is T1, 15N-labelled PD-1 extracellular domain (Homo sapiens, UniProt Q15116, C93S).
T1 construct: ectodomain of human PD-1 (aa 33- 150) was cloned into pET-24d; made in house
The experiment in a line: 1H,15N HSQC NMR mapping of interaction site. The experiment is classed as binding. To be noted: 15N-PD-1 60 µM, peptide 1 mM, 25 °C, pH 6.4; I/Io > 20% considered significant; residues adjacent to the CC′ loop. The method, then:
To further elucidate the interaction site of PD-i3 and PD-i6, we expressed the extracellular domain of PD-1 uniformly labelled in ^15N and performed high-resolution NMR spectroscopy assays.
Microscale thermophoresis (MST)
MST was used to calculate the binding affinities in solution of PD-i3 and PD-i 6 for the extracellular domain of human PD-1. To this end, PD-1 was fluorescently labelled by reaction of the Lys side chains with Alexa-647-NHS (6 eq) for 3 h at 4 °C. The labelled protein was purified by size-exclusion chromatography and was diluted in PBS-T buffer (0.05% Tween 20, pH 7.4) to a final concentration of 10 nM. […]
#BE0193) as positive controls (Figure S). […] A reproducible and negative thermophoresis response was observed, which was baseline-corrected and normalized (ΔFnorm [‰]).The curves were analyzed using a standard Langmuir binding model, from which dissociations constants (K D) were determined. […]
ITC experiments were performed at 25 °C using a low-volume nano ITC calorimeter (TA instruments). […] Binding isotherms were analysed using the software provided by TA instruments, assuming a single binding site for the independent domains. […]
1H,15N HSQC spectra were recorded at 25 °C on a Bruker 600 MHz spectrometer equipped with a cryoprobe. […]
To assess the solution structures of PD-i3 and PD-i6, NMR spectra were recorded at 5 °C on a Bruker B800 MHz spectrometer equipped with a cryoprobe. […]

Experiment [2] concerns the target T2, extracellular domain of human PD-1 (Homo sapiens, UniProt Q15116, C93S).
T2 construct: ectodomain of human PD-1 (aa 33- 150) was cloned into pET-24d; made in house
The experiment in a line: Surface plasmon resonance (SPR), PD-1 immobilised on CM5 chip. Format: binding. To be noted: analytes injected at 10, 100 and 1000 µM in PBS, 25 °C, PBS-T pH 7.4, reference channel subtracted; KD not calculable (fast kinetics, no saturation). The text has this:
Seven de novo designed cyclic peptides were in total selected for experimental characterization (PD-i1-7). To this end, peptide chains were elongated on a Wang-linker modified polystyrene resin (anchoring through the Asp side-chain carboxylic acid). This chemical strategy enabled the head-to-tail cyclisation to be readily performed on-resin, and a final deprotection/cleavage step yielded the already cyclized final peptide (Scheme S1 ^†). To test for their bioactivity, the extracellular domain of human PD-1 was recombinantly expressed in E. coli and refolded from inclusion bodies. The purified protein was then immobilized by free amine coupling on a CM5 sensor chip surface, and surface plasmon resonance (SPR) measurements were performed. […] In particular, we selected microscale thermophoresis (MST) as it has been validated with this system[30] and allows the quantification of interactions in solution, which mimics physiological conditions. To this end, PD-1 was first fluorescently labelled and then titrated with increasing amounts of PD-i3 and PD-i6. […] Mutation of L-Trp, which serves as PD-1 anchor for the in silico design process, largely abolished binding to the target (Fig. S9A ^†). […]

The text below walks through data of article PMC8179567, “Target-templated de novo design of macrocyclic D-/L-peptides: discovery of drug-like inhibitors of PD-1” (Chemical Science, 2021).

Square brackets hold non-standard residues; d marks the D form. Peptide text beside a SMILES is read from it.

T1 sequence (Q15116 33-150 C93S limits assumed): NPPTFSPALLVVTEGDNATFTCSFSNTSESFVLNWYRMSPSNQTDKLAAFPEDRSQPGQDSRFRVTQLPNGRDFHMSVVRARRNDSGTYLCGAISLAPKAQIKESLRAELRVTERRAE
T2 sequence (Q15116 33-150 C93S limits assumed): as above

Regarding `CSCC[C@@H]1NC(=O)[C@H]([C@@H](C)O)NC(=O)[C@H](CC(=O)O)NC(=O)[C@H]2CCCN2C(=O)[C@H](Cc2ccc(O)cc2)NC(=O)[C@H](CCCNC(=N)N)NC(=O)[C@@H](CCCNC(=N)N)NC(=O)[C@@H](CCC(=O)O)NC(=O)[C@H](CC(C)C)NC(=O)[C@H](Cc2ccc(O)cc2)NC1=O` [PD-i3] (cyclo(DTMYL[dE][dR]RY[dP])), the “Changes in PD-1 HSQC signal intensity on peptide addition” value in experiment [1] is “significant changes in signal intensity”. Moreover, in experiment [2], the “SPR response on PD-1-functionalised channel” value is “distinct concentration-dependent SPR responses”.

`CC(C)[C@@H]1NC(=O)[C@@H](Cc2c[nH]c3ccccc23)NC(=O)[C@H](Cc2c[nH]c3ccccc23)NC(=O)[C@H](CC(=O)O)NC(=O)[C@@H](CCCCN)NC(=O)[C@H](C)NC(=O)[C@H](CCC(=O)O)NC(=O)[C@H]2CCCN2C1=O` [PD-i6] (cyclo(A[dK]DW[dW]V[dP]E)): the “Changes in PD-1 HSQC signal intensity on peptide addition” value in experiment [1] is on record as “significant changes in signal intensity”. Moreover, the “SPR response on PD-1-functionalised channel” value in experiment [2] is recorded as “distinct concentration-dependent SPR responses”.
